Patent publication US20220308068A1, “BIOMARKER IN OSTEOPOROSIS INTERVENTION THERAPY BY BONE PEPTIDE, SCREENING METHOD AND USE THEREOF” (Institute of Food Science and Technology, Chinese Academy …, priority 2019, published 2022)

Experiments:
[1] = tested on: ovariectomized osteoporosis rat model; test: Micro-CT of right femurs; assay type: in vivo, SD rats; conditions: vs Model group
Procedure: 1, the construction of ovariectomized rats models: SD rats are kept in a clean environment under a controlled room temperature at 25±2° C. and alternates 12/12 light and dark every day, and the SD rats feed freely. After one week adaptive feeding, randomly select 8 female rats, anesthetize them with 1% (v/v) pentobarbital sodium (40 mg/kg BW), and remove a little fat near ovaries. The remaining 40 rats are ovariectomized after being anesthetized with pentobarbital sodium. The recovery situation is observed in a 4-week recovery period, and their weight changes are detected. These are prepared by the applicant in advance. (any research about metabolic fingerprint changes of ovariectomized osteoporotic rats after intervention with bone peptide have not been reported according to the existing literature). 2, animal grouping and samples collection: the 8 female rats with a little fat near ovaries removed are selected as a sham-operated group, the ovariectomized 40 rats are randomly divided into 5 groups with 8 rats in each group, and are named by a negative control group, a positive control group, a low-concentration treatment group, a medium-concentration treatment group and a high-concentration treatment group. The rats are perfused by different solutions of bovine bone peptide (diluted by ultrapure water, and sterilized) with concentration of 100 mg/kg, 200 mg/kg, and 500 mg/kg according to the weights of the rats. The rats in the negative control group are perfused with equal volume of ultrapure sterile water (a perfusing volume is generally 1-2 mL/100 g BW), and the rats in the positive control group are perfused with 50 μg/kg of 17β-estradiol (ES). Observe weight changes of the rats and measure the weights every two weeks. After perfusing experiment, the rats are sacrificed in accordance with the animal welfare operating procedures, femurs and tibias on both sides are taken, and soft tissues such as muscle and fascia attached to bone tissues are removed. The right tibias are subjected to paraffin-embedded H&E staining treatment after fixing in a phosphate-formalin buffer for 24 hours for morphometric analysis of the tibias of the rats. Left femurs and right femurs is soaked with normal saline, washed repeatedly for 3 times, wrapped with medical gauzes (pre-soaked with normal saline) and tinfoil, and then stored in a −20° C. refrigerator for trabecular bone microstructure (micro-CT scanning) and mechanical strength tests of bone biomechanical indexes (three-point bending test). In the screening method of the biomarkers in the anti-osteoporosis activity of bone peptide, the specific implementation steps of determining biomechanical indexes of the right femurs of the rats by the Micro-CT method are as follows: determining femur microstructures by Micro Computed Tomography (Micro-CT, Inveon-type, SIEMENS, Germany) with scanning parameters: a span voltage of 80 kV, a scanning current of 500 μA, and a scanning thickness (resolution) of […] Region of interest (ROI) of femurs starts from 1 mm below a bone tissue growth-plate. Scan the layers downward and sequentially. Select the bone tissue with a thickness of 100 layers as cancellous ROI for three-dimensional reconstruction to obtain a visualized 3D image. The obtained scanning data are subjected to morphometric calculation of femur tissues using Inveon Research Workplace software (SIEMENS, Germany). […]

[2] = tested on: ovariectomized osteoporosis rat model; test: three-point bending test of left femurs; assay type: in vivo, SD rats; conditions: left femur; treatment groups and ES group vs Model group
Procedure: 1, the construction of ovariectomized rats models: SD rats are kept in a clean environment under a controlled room temperature at 25±2° C. and alternates 12/12 light and dark every day, and the SD rats feed freely. After one week adaptive feeding, randomly select 8 female rats, anesthetize them with 1% (v/v) pentobarbital sodium (40 mg/kg BW), and remove a little fat near ovaries. The remaining 40 rats are ovariectomized after being anesthetized with pentobarbital sodium. The recovery situation is observed in a 4-week recovery period, and their weight changes are detected. These are prepared by the applicant in advance. (any research about metabolic fingerprint changes of ovariectomized osteoporotic rats after intervention with bone peptide have not been reported according to the existing literature). 2, animal grouping and samples collection: the 8 female rats with a little fat near ovaries removed are selected as a sham-operated group, the ovariectomized 40 rats are randomly divided into 5 groups with 8 rats in each group, and are named by a negative control group, a positive control group, a low-concentration treatment group, a medium-concentration treatment group and a high-concentration treatment group. […]

C[C@]12CC[C@@H]3c4ccc(O)cc4CC[C@H]3[C@@H]1CC[C@@H]2O [ES, 17β-estradiol]
osteoporosis of the rats (three dimensional reconstruction of femur bone microstructures) ([1]; after treatment): improved to a certain extent | bone volume fraction (BV/TV) ([1]; right femur): on a rise trend | trabecular bone density (Tb.BMD) ([1]; right femur): on a rise trend | trabecular bone number (Tb.N) ([1]; right femur): on a rise trend | trabecular bone thickness (Tb.Th) ([1]; right femur): on a rise trend | elastic load (Ed) [2]: on a rise trend | fracture load (Fd) [2]: on a rise trend
